Key:
[1] = tested on: nitric oxide (NO) production in RAW264.7 macrophages; experiment: In vitro anti-inflammatory activity: nitric oxide production (Griess) in LPS-exposed RAW264.7 macrophages; format: cell-based, mouse; settings: for inhibition at 5 µM / inhibition at 10 µM: Mus musculus, RAW264.7, read-out: % NO Inhibition ± SD; for inhibition at 5 µM / inhibition at 10 µM / % NO inhibition: LPS 24 hrs; for % NO inhibition: concentration not given
Procedure: Measurement of Nitric oxide: RAW264.7 macrophages were seeded in 96-well plates with a density of 0.5×10^5 cells/well and incubated overnight at 37° C. in a 5% CO2 atmosphere. The cells were treated with different concentration of CBD and its analogues and exposed to LPS for 24 hrs. For nitric oxide (NO) determination, the cell culture supernatant was taken and mixed with equal volume of Griess reagent in another 96 well plate at room temperature (Biomed Pharmacother., 2017, 92, 175-186). The absorbance was measured at 540 nm. The final calculations were determined on a NaNO2 standard curve.

[2] = Cell viability assay in differentiated neuronal cells (MTT), SHSY5Y; format: cell-based; settings: human, read-out: % Cell viability ± SD, SHSY5Y
Source text: (§1) In the present disclosure outlined herein, a focused library of cannabidiol analogues were studied for possible neuro-protective potential employing cell line-based stress model systems which mimic the biological stress conditions in vitro (J Cell Biochem., 2018, 119(8), 6482-6491).
(§2) Human neuroblastoma cells (SHSY5Y) and mouse neuroblastoma cells (N2A) were procured from American Type Culture Collection (ATCC). SHSY5Y cell cultures were maintained in DMEM F12 (Invitrogen) whereas N2A were cultured in DMEM (Invitrogen) with 10% Fetal Bovine Serum (Gibco) medium, subjected to differentiation to acquire neuronal morphology (employing differentiation media DMEM-F12, 3-5% FBS, (For differentiation, low concentration of FBS was used) and 50 μM retinoic acid). Differentiated cells were later seeded into 96 well plates, at a density of 1×10^4 before being incubated for 48 hrs with the synthesized library. The exhausted culture media was substituted with new culture media containing 0.5 mg/ml MTT dye. Eventually, the OD at 490 nm excitation was measured using a 96-well plate reader. The proportion of viable cells was determined as percentage of absorbance of untreated cultures relative to control.

[3] = Cell viability assay in macrophage RAW264.7 cells (MTT); format: cell-based; settings: mouse, read-out: % cell viability ± SD; for viability at 24 h, 5 µM: RAW264.7, 5 μM; for viability at 24 h, 10 µM: RAW264.7, 10 μM
Procedure: RAW264.7 cells were seeded in 96-well cell culture plates at a density of 1×10^4 cells per well and incubated overnight at 37° C. with 5% CO2. Next day, the cells were treated with CBD or its derivatives at 5 μM and/or 10 μM concentration for 24 hrs. The MTT dye (2.5 mg/ml, 20 μL) was added to each well 4 hrs before termination (Molecules. 2022, 27, 8068). After 4 hrs of incubation with MTT, the supernatant was discarded, and the formazan crystals were dissolved by adding 100 μL DMSO. The absorbance was recorded at 540 nm on microplate reader (Tecan Infinite Pro).

[4] = Cell viability assay in differentiated neuronal cells (MTT), N2A; format: cell-based; settings: mouse, read-out: % Cell viability ± SD, N2A
Source text: as §1, §2

## C=C(C)[C@@H]1CCC(C)=C[C@H]1c1c(O)c(CN2CCOCC2)c(CCCCC)c(CN2CCOCC2)c1O [A1′, 2′,4′-{bis-(morpholin-1-ylmethyl)}-cannabidiol]
[1]
  inhibition at 5 µM: 15.6 ± 2.5%
  inhibition at 10 µM: 23.4 ± 3.8%
  % NO inhibition: greater than 20%
[2]
  viability at 48 h, 20 µM: 93.6 ± 2.01%
[3]
  viability at 24 h, 5 µM: 94.4 ± 0.9%
  viability at 24 h, 10 µM: 92.4 ± 1.2%
[4]
  viability at 48 h, 20 µM: 94.7 ± 1.86%

## C=C(C)[C@@H]1CCC(C)=C[C@H]1c1c(O)cc(CCCCC)c(CN2CCC(C(C)C)CC2)c1O [A3, 2′-{(4-isopropylpiperidin-1-yl)methyl}-cannabidiol]
[1]
  inhibition at 5 µM: 4.9 ± 1.4%
  inhibition at 10 µM: 10.7 ± 2.1%
[2]
  viability at 48 h, 20 µM: 103 ± 2.25%
[3]
  viability at 24 h, 5 µM: 92.8 ± 0.9%
  viability at 24 h, 10 µM: 89.9 ± 1.2%
[4]
  viability at 48 h, 20 µM: 99.7 ± 0.42%

## C=C(C)[C@@H]1CCC(C)=C[C@H]1c1c(O)cc(CCCCC)c(CN2CCC(Cc3ccccc3)CC2)c1O [A7, 2′-{(4-benzylpiperidin-1-yl)methyl}-cannabidiol]
[1]
  inhibition at 5 µM: 8.4 ± 3.1%
  inhibition at 10 µM: 16 ± 1.2%
[2]
  viability at 48 h, 20 µM: 102 ± 1.57%
[3]
  viability at 24 h, 5 µM: 90.1 ± 1.3%
  viability at 24 h, 10 µM: 93 ± 1.7%
[4]
  viability at 48 h, 20 µM: 101.7 ± 0.47%

## C=C(C)[C@@H]1CCC(C)=C[C@H]1c1c(O)cc(CCCCC)c(CN2CCC(C(F)(F)F)CC2)c1O [A6, 2′-[{4-(trifluoromethyl)piperidin-1-yl}methyl]-cannabidiol]
[1]
  inhibition at 5 µM: 7.6 ± 3%
  inhibition at 10 µM: 11.8 ± 1.9%
[2]
  viability at 48 h, 20 µM: 27 ± 2.02%
[3]
  viability at 24 h, 5 µM: 94.1 ± 1.8%
  viability at 24 h, 10 µM: 92 ± 1.1%
[4]
  viability at 48 h, 20 µM: 25.3 ± 1.47%

## C=C(C)[C@@H]1CCC(C)=C[C@H]1c1c(O)cc(CCCCC)c(CN2CCN(C3CC3)CC2)c1O [A13, 2′-{(4-cyclopropylpiperazin-1-yl)methyl}-cannabidiol]
[1]
  inhibition at 5 µM: 12 ± 1.7%
  inhibition at 10 µM: 27.3 ± 2.6%
  % NO inhibition: more than 25%
[2]
  viability at 48 h, 20 µM: 96.2 ± 4.87%
[3]
  viability at 24 h, 5 µM: 89.3 ± 2%
  viability at 24 h, 10 µM: 93.9 ± 4.3%
[4]
  viability at 48 h, 20 µM: 97.2 ± 3.51%

## C=C(C)[C@@H]1CCC(C)=C[C@H]1c1c(O)cc(CCCCC)c(CN2CCN(c3ccccc3)CC2)c1O [A12, 2′-{(4-phenylpiperazin-1-yl)methyl}-cannabidiol]
[1]
  inhibition at 5 µM: 8.6 ± 0.93%
  inhibition at 10 µM: 11.4 ± 3.5%
[2]
  viability at 48 h, 20 µM: 95.9 ± 3.39%
[3]
  viability at 24 h, 5 µM: 94.5 ± 1%
  viability at 24 h, 10 µM: 92.7 ± 0.5%
[4]
  viability at 48 h, 20 µM: 96.2 ± 2.32%

## C=C(C)[C@@H]1CCC(C)=C[C@H]1c1c(O)cc(CCCCC)c(CN2CCN(c3ccc(Cl)cc3)CC2)c1O [A14, 2′-[{4-(4-chlorophenyl)piperazine}methyl]-cannabidiol]
[1]
  inhibition at 5 µM: 8.5 ± 1.7%
  inhibition at 10 µM: 14.2 ± 3.8%
[2]
  viability at 48 h, 20 µM: 90.5 ± 0.14%
[3]
  viability at 24 h, 5 µM: 95.2 ± 0.7%
  viability at 24 h, 10 µM: 89.8 ± 1.1%
[4]
  viability at 48 h, 20 µM: 95.9 ± 4.04%

## Lipopolysaccharide [LPS, reference compound]
[1]; LPS alone 1 μg/ml (0% reference)
  % NO Inhibition ± SD: 0%

## C=C(C)[C@@H]1CCC(C)=C[C@H]1c1c(O)cc(CCCCC)c(CN2CCN(c3ncccn3)CC2)c1O [A15, 2′-[{4-(pyrimidin-2-yl)piperazin-1-yl}methyl]-cannabidiol]
[1]
  inhibition at 5 µM: 4.8 ± 0.02%
  inhibition at 10 µM: 14.5 ± 0.6%
[2]
  viability at 48 h, 20 µM: 81.8 ± 1.17%
[3]
  viability at 24 h, 5 µM: 93.4 ± 1.1%
  viability at 24 h, 10 µM: 89.9 ± 0.9%
[4]
  viability at 48 h, 20 µM: 85.2 ± 1.25%

## C=C(C)[C@@H]1CCC(C)=C[C@H]1c1c(O)cc(CCCCC)c(CNc2cnccn2)c1O [A16, 2′-{(pyrazin-2-ylamino)methyl}-cannabidiol]
[1]
  inhibition at 5 µM: 11.5 ± 1.2%
  inhibition at 10 µM: 18.3 ± 1%
[2]
  viability at 48 h, 20 µM: 86.97 ± 0.12%
[3]
  viability at 24 h, 5 µM: 93.6 ± 1.3%
  viability at 24 h, 10 µM: 87.7 ± 0.8%
[4]
  viability at 48 h, 20 µM: 89.85 ± 0.03%

## C=C(C)[C@@H]1CCC(C)=C[C@H]1c1c(O)cc(CCCCC)c(CN2CCN(C(C)=O)CC2)c1O [A11, 2′-[{4-(piperazin-1-yl)ethan-1-one}methyl]-cannabidiol]
[1]
  inhibition at 5 µM: 15.6 ± 1.7%
  inhibition at 10 µM: 31.4 ± 3.6%
  % NO inhibition: more than 25%
[2]
  viability at 48 h, 20 µM: 101 ± 3.48%
[3]
  viability at 24 h, 5 µM: 93.3 ± 0.4%
  viability at 24 h, 10 µM: 91.6 ± 0.2%
[4]
  viability at 48 h, 20 µM: 102 ± 1.53%

## C=C(C)[C@@H]1CCC(C)=C[C@H]1c1c(O)cc(CCCCC)c(CN2CCN(CCO)CC2)c1O [A10, 2′-[{4-(2-hydroxyethyl)piperazin-1-yl}methyl]-cannabidiol]
[1]
  inhibition at 5 µM: 48.9%
  inhibition at 10 µM: 68.3%
[2]
  viability at 48 h, 20 µM: 98.1 ± 2.25%
[3]
  viability at 24 h, 5 µM: 97.5 ± 1.7%
  viability at 24 h, 10 µM: 95 ± 2.6%
[4]
  viability at 48 h, 20 µM: 96 ± 2.17%

## C=C(C)[C@@H]1CCC(C)=C[C@H]1c1c(O)cc(CCCCC)c(CN2CCN(CC)CC2)c1O [A9, 2′-{(4-ethylpiperazin-1-yl)methyl}-cannabidiol]
[1]
  inhibition at 5 µM: 14.6 ± 3.3%
  inhibition at 10 µM: 27.9 ± 0.4%
  % NO inhibition: more than 25%
[2]
  viability at 48 h, 20 µM: 91.67 ± 0.56%
[3]
  viability at 24 h, 5 µM: 94.2 ± 2.1%
  viability at 24 h, 10 µM: 87.6 ± 0.1%
[4]
  viability at 48 h, 20 µM: 94.3 ± 1.3%

## C=C(C)[C@@H]1CCC(C)=C[C@H]1c1c(O)cc(CCCCC)c(CN2CCCCC2)c1O [A2, 2′-(piperidin-1-ylmethyl)-cannabidiol]
[2]
  viability at 48 h, 20 µM: 95.8 ± 1.1%
[3]
  viability at 24 h, 5 µM: 65.9 ± 6.5%
  viability at 24 h, 10 µM: 61.7 ± 8.1%
[4]
  viability at 48 h, 20 µM: 96.9 ± 3.77%

## C=C(C)[C@@H]1CCC(C)=C[C@H]1c1c(O)cc(CCCCC)c(CN2CCC(O)CC2)c1O [A4, 2′-{(4-hydroxypiperidin-1-yl)methyl}-cannabidiol]
[1]
  inhibition at 5 µM: 11.4 ± 2.9%
  inhibition at 10 µM: 20.8 ± 2.5%
  % NO inhibition: greater than 20%
[2]
  viability at 48 h, 20 µM: 97.28 ± 0.54%
[3]
  viability at 24 h, 5 µM: 93.8 ± 1.14%
  viability at 24 h, 10 µM: 90.6 ± 0.7%
[4]
  viability at 48 h, 20 µM: 97.71 ± 0.81%

## C=C(C)[C@@H]1CCC(C)=C[C@H]1c1c(O)cc(CCCCC)c(CN2CCC(c3ccccc3)CC2)c1O [A5, 2′-{(4-phenylpiperidin-1-yl)methyl}-cannabidiol]
[1]
  inhibition at 5 µM: 5.8 ± 2.4%
  inhibition at 10 µM: 12.3 ± 3.1%
[2]
  viability at 48 h, 20 µM: 94.5 ± 1.12%
[3]
  viability at 24 h, 5 µM: 94.4 ± 1.3%
  viability at 24 h, 10 µM: 90.4 ± 0.9%
[4]
  viability at 48 h, 20 µM: 90.6 ± 1.85%

Source: patent US20260315499A1, “2'- {HETEROCYCLYL (ARYL/ALKYL) METHYL} - CANNABIDIOL COMPOUNDS AND PROCESS FOR PREPARATION THEREOF” (COUNCIL OF SCIENTIFIC & INDUSTRIAL RESEARCH, priority 2023, published 2026)
